Six molecules from ChEMBL document CHEMBL1126116, “Synthesis and antibronchospastic activity of 8-alkoxy- and 8-(alkylamino)imidazo[1,2-a]pyrazines” (J Med Chem, 1992) can be followed below.

SMILES strings stand for the structures.

Data set [1] can be described thus: Compound was tested for it's acute toxicity in mice when given orally. In kind it is organism-based. The conditions noted are these: mouse, in vivo, po.
Data set [2] has as its system Mus musculus. In words: Locomotor activity (no. light beam crossings in 50 min) in mice by intravenous dose at 55 umol/kg. The data set is classed as functional.
Data set [3] deals with Heart phosphodiesterase (Bos taurus, UniProt Q01061+P14100+E1BN64). The experiment in a line: Inhibition of bovine heart phosphodiesterase. The data set is classed as protein assay.
Data set [4] is filed under the species Rattus norvegicus. The experiment in a line: Inhibition of spontaneous contraction of isolated rat uterus. The data set is classed as functional. The conditions noted are these: read-out: ED50 (the source's name).
Data set [5] has as its system Mus musculus. In words: Locomotor activity (no. light beam crossings in 50 min) in mice by intravenous dose at 166 umol/kg. In kind it is functional.
Data set [6] is filed under the species Rattus norvegicus. In words: (§1) Inhibition of carbachol induced tracheal contraction. The conditions noted are these: Trachea, read-out: ED50 (the source's name). The data set is classed as functional.
Data set [7] is described as follows: Compound was tested for its acute toxicity in mice when given orally. The data set is classed as organism-based. The conditions noted are these: mouse, in vivo, po.
The species named for data set [8] is Cavia porcellus. The data set is described as §1. The conditions noted are these: Trachea, read-out: ED50 (the source's name). The data set is classed as functional.

As a reminder, the LD50 is the dose expected to kill half of the subjects tested. Read a low LD50 as greater toxicity. In general, IC50 refers to the midpoint of a concentration-inhibition curve. Read a low IC50 as greater potency. As for `Cn1c(=O)c2nc[nH]c2n(C)c1=O.O` [THEOPHYLLINE], the LD50 in data set [1] turned out to be 1900 µmol/kg. In addition, the Activity in data set [2] worked out at 130%; in data set [5], 170%. The molecule also yielded an IC50 in data set [3] of 92 µM. Moreover, the EC50 came out at 900 µM in data set [4] and 920 µM in data set [6].
Take `CNc1nc(Br)cn2ccnc12`: the LD50 in data set [1] is 2200 µmol/kg. Also, the Activity in data set [2] is listed as -75%; in data set [5], -83%. The IC50 in data set [3] worked out at 27 µM. The EC50 in data set [4] amounted to 160 µM; in data set [6] it was 24 µM.
For the molecule `CNc1nccn2c(Br)cnc12`, the Activity in data set [2] is on record as -25%; in data set [5] it was -57%. In data set [3], this molecule came in with an IC50 of 337 µM. Moreover, the EC50 in data set [4] stood at 100 µM; in data set [8], 97 µM. For the same molecule, in data set [7], the LD50 stood at 4200 µmol/kg.
In the case of `CNc1nc(Br)cn2cc(C#N)nc12`, the LD50 in data set [1] came to 500 µmol/kg. Further, the Activity in data set [2] is reported as -64%. In data set [3], this molecule came in with an IC50 of 70 µM. In addition, the EC50 in data set [4] and in data set [6] was 2 µM in each case.
In the case of `Nc1nc(Br)cn2ccnc12`, the LD50 in data set [1] was 1300 µmol/kg. Besides, the Activity is listed as -53% in data set [2] and -83% in data set [5]. Also, the IC50 in data set [3] is 267 µM. Besides, the EC50 is 300 µM in data set [4] and 93 µM in data set [6].
In turn, `CCNc1nc(Br)cn2ccnc12` gave an LD50 in data set [1] of 2900 µmol/kg. The results for the Activity in data set [2] and in data set [5] were -13% and -73%, respectively. In data set [3], this molecule displayed an IC50 of 81 µM. Also, the values for the EC50 in data set [4] and in data set [6] were 130 µM and 65 µM, respectively.
